What was measured:
[1] = biological target: Mitogen-activated protein kinase kinase kinase 19 (Homo sapiens) (UniProt Q56UN5); test: Inhibition of human YSK4 at 100 nM using MBP as substrate by [gamma-33P]-ATP assay
[2] = biological target: NUAK family SNF1-like kinase 1 (Homo sapiens) (UniProt O60285); test: Inhibition of human ARK5 at 100 nM using KKKVSRSGLYRSPSMPENLNRPR as substrate by [gamma-33P]-ATP assay
[3] = biological target: Serine/threonine-protein kinase pim-1 (Homo sapiens) (UniProt P11309); test: Inhibition of human PIM1 at 100 nM using KKRNRTLTK as substrate by [gamma-33P]-ATP assay
[4] = biological target: CDK4/Cyclin D3 (Homo sapiens) (UniProt P11802+P30281); test: Inhibition of human CDK4/cyclin-D3 at 100 nM using RB-CTF as substrate by [gamma-33P]-ATP assay; assay type: protein-complex assay
[5] = biological target: 3-phosphoinositide-dependent protein kinase 1 (Homo sapiens) (UniProt O15530); test: Inhibition of human PDK1/PDPk1 at 100 nM using [KTFCGTPEYLAPEVRREPRILSEEEQEMFRDFDYIADWC as substrate by [gamma-33P]-ATP assay
[6] = biological target: Ephrin type-B receptor 1 (Homo sapiens) (UniProt P54762); test: Inhibition of human EPHB1 at 100 nM using poly[Glu:Tyr] (4:1) as substrate by [gamma-33P]-ATP assay
[7] = biological target: High affinity nerve growth factor receptor (Homo sapiens) (UniProt P04629); test: Inhibition of human TRKA at 100 nM using poly[Glu:Tyr] (4:1) as substrate by [gamma-33P]-ATP assay
[8] = biological target: Myotonin-protein kinase (Homo sapiens) (UniProt Q09013); test: Inhibition of human DMPK at 100 nM using KKRNRRLSVA as substrate by [gamma-33P]-ATP assay
[9] = Cmax in Sprague-Dawley rat at 10 mg/kg, po measured upto 24 hrs by LC-MS/MS analysis; assay type: ADME, organism-based; parameters: dose 10 mg/kg, route oral; conditions: in vivo
[10] = biological target: Casein kinase I isoform gamma-1 (Homo sapiens) (UniProt Q9HCP0); test: Inhibition of human CK1gamma1 at 100 nM using KRRRAL[pS]VASLPGL as substrate by [gamma-33P]-ATP assay
[11] = biological target: Interleukin-1 receptor-associated kinase 1 (Homo sapiens) (UniProt P51617); test: Inhibition of human IRAK1 at 100 nM using MBP as substrate by [gamma-33P]-ATP assay
[12] = biological target: Mitogen-activated protein kinase 11 (Homo sapiens) (UniProt Q15759); test: Inhibition of human p38beta at 100 nM using MBP as substrate by [gamma-33P]-ATP assay
[13] = biological target: Mitogen-activated protein kinase kinase kinase 7 (Homo sapiens) (UniProt O43318); test: Inhibition of human TAK1 at 100 nM using casein as substrate by [gamma-33P]-ATP assay
[14] = biological target: Serine/threonine-protein kinase N1 (Homo sapiens) (UniProt Q16512); test: Inhibition of human PKN1 at 100 nM using KKLNRTLSVA as substrate by [gamma-33P]-ATP assay
[15] = biological target: Calcium/calmodulin-dependent protein kinase type II subunit gamma (Homo sapiens) (UniProt Q13555); test: Inhibition of human CAMK2G at 100 nM using KKLNRTLSFAEPG as substrate by [gamma-33P]-ATP assay
[16] = biological target: Wee1-like protein kinase (Homo sapiens) (UniProt P30291); test: Inhibition of human WEE1 at 100 nM using MBP as substrate by [gamma-33P]-ATP assay
[17] = biological target: Dual specificity mitogen-activated protein kinase kinase 3 (Homo sapiens) (UniProt P46734); test: Inhibition of human MEK3 at 100 nM using p38alpha as substrate by [gamma-33P]-ATP assay
[18] = biological target: Inactive tyrosine-protein kinase PEAK1 (Homo sapiens) (UniProt Q9H792); test: Inhibition of human PEAK1 at 100 nM using MBP as substrate by [gamma-33P]-ATP assay
[19] = biological target: G protein-coupled receptor kinase 3 (Homo sapiens) (UniProt P35626); test: Inhibition of human GRK3 at 100 nM using casein as substrate by [gamma-33P]-ATP assay
A549 = test: Antitumor activity against human A549 cells xenografted in BALB/c nude mouse assessed as tumor growth inhibition at 20 mg/kg, ig administered for 30 days measured every 3 days during compound dosing relative to control; assay type: functional; conditions: A549, po, read-out: TGI
[20] = biological target: Aurora kinase C (Homo sapiens) (UniProt Q9UQB9); test: Inhibition of human Aurora C at 100 nM using [H-LRRASLG] as substrate by [gamma-33P]-ATP assay
[21] = biological target: Serine/threonine-protein kinase SIK2 (Homo sapiens) (UniProt Q9H0K1); test: Inhibition of human SIK2 at 100 nM using AMARAASAAALARRR as substrate by [gamma-33P]-ATP assay
[22] = biological target: Homeodomain-interacting protein kinase 2 (Homo sapiens) (UniProt Q9H2X6); test: Inhibition of human HIPK2 at 100 nM using MBP as substrate by [gamma-33P]-ATP assay
[23] = biological target: Dual specificity protein kinase CLK2 (Homo sapiens) (UniProt P49760); test: Inhibition of human CLK2 at 100 nM using MBP as substrate by [gamma-33P]-ATP assay
[24] = biological target: RAC-gamma serine/threonine-protein kinase (Homo sapiens) (UniProt Q9Y243); test: Inhibition of human AKT3 at 100 nM using KGSGSGRPRTSSFAEG as substrate by [gamma-33P]-ATP assay
[25] = biological target: Tyrosine-protein kinase FRK (Homo sapiens) (UniProt P42685); test: Inhibition of human FRK at 100 nM using poly[Glu:Tyr] (4:1) as substrate by [gamma-33P]-ATP assay
[26] = biological target: Beta-adrenergic receptor kinase 1 (Homo sapiens) (UniProt P25098); test: Inhibition of human GRK2 at 100 nM using casein as substrate by [gamma-33P]-ATP assay
[27] = Toxicity in BALB/c mouse xenografted with human A549 cells assessed as reduction in body weight at 20 to 40 mg/kg, ig administered for 30 days; assay type: organism-based; conditions: in vivo, po, 720 h
[28] = biological target: Proto-oncogene tyrosine-protein kinase Src (Homo sapiens) (UniProt P12931); test: Inhibition of human c-SRC at 100 nM using poly[Glu:Tyr] (4:1) as substrate by [gamma-33P]-ATP assay
[29] = Tmax in Sprague-Dawley rat at 10 mg/kg, po measured upto 24 hrs by LC-MS/MS analysis; assay type: ADME, organism-based; conditions: in vivo
[30] = biological target: Serine/threonine-protein kinase 25 (Homo sapiens) (UniProt O00506); test: Inhibition of human STK25 at 100 nM using MBP as substrate by [gamma-33P]-ATP assay
Chain of Serine/threonine-protein kinase 25 (Homo sapiens) (O00506 whole entry, looked up): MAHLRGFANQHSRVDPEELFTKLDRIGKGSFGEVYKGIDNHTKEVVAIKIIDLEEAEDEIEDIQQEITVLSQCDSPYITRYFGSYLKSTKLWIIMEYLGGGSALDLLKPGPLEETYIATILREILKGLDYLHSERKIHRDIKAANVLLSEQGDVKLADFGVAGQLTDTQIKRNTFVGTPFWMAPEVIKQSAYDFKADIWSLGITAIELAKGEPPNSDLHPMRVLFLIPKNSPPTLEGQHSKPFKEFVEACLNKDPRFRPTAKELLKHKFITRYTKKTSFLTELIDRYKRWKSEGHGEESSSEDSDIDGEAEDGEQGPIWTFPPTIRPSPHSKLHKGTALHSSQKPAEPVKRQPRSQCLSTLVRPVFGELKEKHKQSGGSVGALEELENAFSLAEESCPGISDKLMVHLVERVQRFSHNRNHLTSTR

Chain of Serine/threonine-protein kinase pim-1 (Homo sapiens) (P11309 whole entry, looked up): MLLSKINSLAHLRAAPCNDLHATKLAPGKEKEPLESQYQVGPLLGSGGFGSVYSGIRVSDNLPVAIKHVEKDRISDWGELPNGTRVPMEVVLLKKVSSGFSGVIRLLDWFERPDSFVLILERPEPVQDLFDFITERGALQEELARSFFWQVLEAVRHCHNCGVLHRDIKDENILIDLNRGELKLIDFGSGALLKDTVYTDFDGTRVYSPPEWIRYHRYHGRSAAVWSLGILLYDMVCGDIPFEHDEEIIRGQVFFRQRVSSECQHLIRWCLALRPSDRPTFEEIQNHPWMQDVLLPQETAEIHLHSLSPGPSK
Chain of Ephrin type-B receptor 1 (Homo sapiens) (P54762 whole entry): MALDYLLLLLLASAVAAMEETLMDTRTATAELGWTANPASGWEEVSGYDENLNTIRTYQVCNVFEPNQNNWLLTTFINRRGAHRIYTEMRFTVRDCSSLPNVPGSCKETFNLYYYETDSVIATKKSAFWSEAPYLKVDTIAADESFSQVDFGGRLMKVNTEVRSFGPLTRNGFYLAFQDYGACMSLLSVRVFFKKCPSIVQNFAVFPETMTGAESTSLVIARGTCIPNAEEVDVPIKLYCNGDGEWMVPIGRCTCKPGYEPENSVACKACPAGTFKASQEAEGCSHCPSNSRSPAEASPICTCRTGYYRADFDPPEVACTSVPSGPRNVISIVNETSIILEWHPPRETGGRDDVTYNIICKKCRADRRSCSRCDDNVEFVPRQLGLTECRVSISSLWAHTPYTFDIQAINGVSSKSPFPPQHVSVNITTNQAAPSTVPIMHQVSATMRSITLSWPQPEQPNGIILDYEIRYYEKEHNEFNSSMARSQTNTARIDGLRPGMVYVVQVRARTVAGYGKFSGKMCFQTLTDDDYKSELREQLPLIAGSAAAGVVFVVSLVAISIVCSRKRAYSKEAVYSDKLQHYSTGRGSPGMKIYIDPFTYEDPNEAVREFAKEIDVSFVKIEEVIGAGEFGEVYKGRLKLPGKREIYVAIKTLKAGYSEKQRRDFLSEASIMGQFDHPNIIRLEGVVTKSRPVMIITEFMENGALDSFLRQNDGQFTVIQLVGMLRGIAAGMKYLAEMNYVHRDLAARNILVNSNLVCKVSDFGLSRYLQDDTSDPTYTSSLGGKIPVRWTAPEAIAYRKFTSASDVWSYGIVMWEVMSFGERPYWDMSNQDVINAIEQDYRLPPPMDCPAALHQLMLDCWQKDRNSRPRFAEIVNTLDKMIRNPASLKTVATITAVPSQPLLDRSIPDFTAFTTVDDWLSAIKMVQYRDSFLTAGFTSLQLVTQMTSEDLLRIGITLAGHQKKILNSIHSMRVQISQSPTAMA
Chain of RAC-gamma serine/threonine-protein kinase (Homo sapiens) (Q9Y243 whole entry): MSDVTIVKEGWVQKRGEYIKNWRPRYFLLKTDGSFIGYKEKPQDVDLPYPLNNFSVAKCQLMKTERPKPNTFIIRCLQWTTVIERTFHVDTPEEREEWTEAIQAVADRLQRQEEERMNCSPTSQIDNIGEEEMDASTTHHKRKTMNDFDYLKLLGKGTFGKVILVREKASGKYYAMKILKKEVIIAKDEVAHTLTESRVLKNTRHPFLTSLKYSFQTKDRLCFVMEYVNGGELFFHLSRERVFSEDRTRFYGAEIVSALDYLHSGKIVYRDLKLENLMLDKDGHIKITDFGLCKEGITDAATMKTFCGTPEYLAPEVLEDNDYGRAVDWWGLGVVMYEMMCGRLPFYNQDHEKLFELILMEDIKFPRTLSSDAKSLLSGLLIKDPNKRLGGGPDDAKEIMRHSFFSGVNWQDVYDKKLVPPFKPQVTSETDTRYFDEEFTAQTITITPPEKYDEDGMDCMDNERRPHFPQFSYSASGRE
Chain of Beta-adrenergic receptor kinase 1 (Homo sapiens) (P25098 whole entry): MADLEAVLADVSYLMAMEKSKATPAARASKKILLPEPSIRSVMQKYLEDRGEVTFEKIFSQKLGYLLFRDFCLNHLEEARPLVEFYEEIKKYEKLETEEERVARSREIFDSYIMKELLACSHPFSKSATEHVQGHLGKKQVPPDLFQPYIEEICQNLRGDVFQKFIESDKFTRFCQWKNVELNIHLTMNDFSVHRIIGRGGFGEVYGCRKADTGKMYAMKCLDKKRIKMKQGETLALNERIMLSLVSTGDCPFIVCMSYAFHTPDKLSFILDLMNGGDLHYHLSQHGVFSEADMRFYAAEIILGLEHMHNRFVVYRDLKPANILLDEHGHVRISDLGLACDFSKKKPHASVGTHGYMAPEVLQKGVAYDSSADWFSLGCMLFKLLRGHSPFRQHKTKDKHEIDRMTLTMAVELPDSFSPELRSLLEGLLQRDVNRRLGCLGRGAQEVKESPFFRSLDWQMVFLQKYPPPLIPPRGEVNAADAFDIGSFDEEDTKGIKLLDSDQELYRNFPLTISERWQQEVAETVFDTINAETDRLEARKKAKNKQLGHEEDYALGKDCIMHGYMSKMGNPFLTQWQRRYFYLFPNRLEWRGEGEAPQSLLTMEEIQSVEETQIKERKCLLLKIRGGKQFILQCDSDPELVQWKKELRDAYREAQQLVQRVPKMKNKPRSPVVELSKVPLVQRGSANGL
Chain of Calcium/calmodulin-dependent protein kinase type II subunit gamma (Homo sapiens) (Q13555 whole entry): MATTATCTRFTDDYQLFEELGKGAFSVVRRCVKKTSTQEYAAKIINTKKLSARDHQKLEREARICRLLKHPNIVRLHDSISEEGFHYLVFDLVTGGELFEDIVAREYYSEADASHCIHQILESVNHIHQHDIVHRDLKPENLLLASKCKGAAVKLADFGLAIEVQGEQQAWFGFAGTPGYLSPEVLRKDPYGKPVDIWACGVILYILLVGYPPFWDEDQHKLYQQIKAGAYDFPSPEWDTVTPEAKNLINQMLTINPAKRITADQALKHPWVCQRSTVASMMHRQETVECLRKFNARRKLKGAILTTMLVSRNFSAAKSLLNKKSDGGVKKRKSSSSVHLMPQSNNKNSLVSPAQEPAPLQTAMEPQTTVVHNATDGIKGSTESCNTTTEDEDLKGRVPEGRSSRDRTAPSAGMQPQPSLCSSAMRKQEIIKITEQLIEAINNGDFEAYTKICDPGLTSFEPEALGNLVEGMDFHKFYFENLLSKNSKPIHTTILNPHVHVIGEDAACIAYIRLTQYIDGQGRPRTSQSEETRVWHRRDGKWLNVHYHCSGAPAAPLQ
Chain of G protein-coupled receptor kinase 3 (Homo sapiens) (P35626 whole entry): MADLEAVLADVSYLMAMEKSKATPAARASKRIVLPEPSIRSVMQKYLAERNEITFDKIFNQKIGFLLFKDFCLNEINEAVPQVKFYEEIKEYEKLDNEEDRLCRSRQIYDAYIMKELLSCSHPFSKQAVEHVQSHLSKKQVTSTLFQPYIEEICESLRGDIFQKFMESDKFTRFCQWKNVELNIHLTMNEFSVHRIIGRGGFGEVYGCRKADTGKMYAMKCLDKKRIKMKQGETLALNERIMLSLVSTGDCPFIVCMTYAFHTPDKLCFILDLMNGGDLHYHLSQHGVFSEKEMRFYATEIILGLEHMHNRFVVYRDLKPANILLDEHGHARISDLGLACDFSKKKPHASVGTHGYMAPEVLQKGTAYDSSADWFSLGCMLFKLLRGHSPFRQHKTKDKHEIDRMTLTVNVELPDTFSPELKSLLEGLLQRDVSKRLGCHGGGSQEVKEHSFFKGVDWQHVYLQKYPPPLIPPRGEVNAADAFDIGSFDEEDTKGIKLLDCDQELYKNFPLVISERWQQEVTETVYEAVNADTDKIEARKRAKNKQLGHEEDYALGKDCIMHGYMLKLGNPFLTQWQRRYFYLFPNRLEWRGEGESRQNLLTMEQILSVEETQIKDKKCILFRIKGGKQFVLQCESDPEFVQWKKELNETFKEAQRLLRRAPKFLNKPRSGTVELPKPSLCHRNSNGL
Chain of Tyrosine-protein kinase FRK (Homo sapiens) (P42685 whole entry): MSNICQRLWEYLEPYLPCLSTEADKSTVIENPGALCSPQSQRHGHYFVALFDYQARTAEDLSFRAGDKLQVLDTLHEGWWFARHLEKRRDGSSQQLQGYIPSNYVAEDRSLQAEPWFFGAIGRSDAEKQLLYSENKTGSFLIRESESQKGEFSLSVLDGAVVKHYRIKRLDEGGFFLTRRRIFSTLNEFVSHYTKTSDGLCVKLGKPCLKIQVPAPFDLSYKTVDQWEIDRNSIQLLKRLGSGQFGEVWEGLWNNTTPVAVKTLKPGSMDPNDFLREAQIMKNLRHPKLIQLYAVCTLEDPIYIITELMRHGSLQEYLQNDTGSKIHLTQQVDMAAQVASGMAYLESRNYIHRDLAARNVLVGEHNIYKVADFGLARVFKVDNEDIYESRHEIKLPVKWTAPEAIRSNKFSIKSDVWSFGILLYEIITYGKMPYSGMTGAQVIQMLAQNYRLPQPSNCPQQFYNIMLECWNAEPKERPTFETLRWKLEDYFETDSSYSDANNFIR
Chain of Aurora kinase C (Homo sapiens) (Q9UQB9 whole entry): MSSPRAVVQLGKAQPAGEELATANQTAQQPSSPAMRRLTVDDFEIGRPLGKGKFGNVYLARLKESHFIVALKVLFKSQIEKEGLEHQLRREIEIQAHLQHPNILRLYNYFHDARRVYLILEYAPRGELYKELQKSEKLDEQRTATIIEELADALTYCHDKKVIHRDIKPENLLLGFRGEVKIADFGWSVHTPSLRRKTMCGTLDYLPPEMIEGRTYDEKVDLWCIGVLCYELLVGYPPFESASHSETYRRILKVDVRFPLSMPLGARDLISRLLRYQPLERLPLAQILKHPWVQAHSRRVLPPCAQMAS

In the case of `COc1ccc(N2C(=O)COc3ccc(-c4cnc(OC)c(NS(=O)(=O)c5ccc(F)cc5)c4)cc32)cc1`, the inhibition [1] is reported as 3.44%, the inhibition [2] is reported as 0.26% and the inhibition [3] is reported as 19.4%. For the same molecule, the inhibition [4] was -5.7%, the inhibition [5] was -3.45% and the inhibition [6] was 8.67%. It also gave an inhibition [7] of 5.12%, an inhibition [8] of -4.58% and a Cmax [9] of 887 ng/mL. For the same molecule, the inhibition [10] was 6.26%, the inhibition [11] was -5.22% and the inhibition [12] was 9.33%. It also gave an inhibition [13] of 12.5%, an inhibition [14] of 16.8% and an inhibition [15] of 2.55%. For the same molecule, the inhibition [16] was 6.18%, the inhibition [17] was 1.4% and the inhibition [18] was 4.84%. For the same molecule, the inhibition [19] was -4.85%, the inhibition in vivo at 20 mg/kg (A549) was 57.8% and the inhibition [20] was 10.1%. For the same molecule, the inhibition [21] was -3.42%, the inhibition [22] was -4.94% and the inhibition [23] was 10.2%. It also gave an inhibition [24] of 5.88%, an inhibition [25] of 8.7% and an inhibition [26] of 0.16%. The Activity [27] was “Non-Toxic”, the inhibition [28] was 6.76% and the Tmax [29] was 2.67 h. The inhibition [30] was 0.52%.

Reference: ChEMBL document CHEMBL4364276, “Discovery of 4-phenyl-2H-benzo[b][1,4]oxazin-3(4H)-one derivatives as potent and orally active PI3K/mTOR dual inhibitors” (Eur J Med Chem, 2019)
